In patent US8188301B2, “Disubstituted phenylpyrrolidines as modulators of cortical catecholaminergic neurotransmission” (NSAB, Filial af NeuroSearch Sweden AB, Sverige, priority 2007, dated 2012):
Where a name gives a salt, the structure may show the parent alone. Read-outs that look alike come from different tables or passages of the source.

Tests used:
[1] = test system: DOPAC levels (3,4-dihydroxyphenylacetic acid) in the rat striatum; test: Tissue content of DOPAC in rat striatum after systemic administration of test compound (in vivo neurochemistry); details: for change in vivo at 100 µmol/kg: sc, 1 h
Method: The measurement of the tissue content of DOPAC is well established in the field of research since the 1960's. In short, male Sprague-Dawely rats are administered the test compound 60 minutes prior to decapitation. The brain is rapidly taken out and dissected. The striatum is rapidly frozen and subsequently quantitatively analysed with respect to its content of DOPAC by means of HPLC and electrochemical detection. The number of animals used for each test compound/vehicle is 4/group.
Male Sprague-Dawley rats weighing 220-320 g are used throughout the experiments. Sixty (60) minutes following administration of the test substance, the rats are decapitated. Directly after decapitation the brain is removed from the skull and put on a glass petri bowl filled with ice. The limbic system (containing the nucleus accumbens—both the core and shell, most parts of the olfactory tubercle and ventral pallidum) is dissected using two thin, angled tweezers and put directly on foil on dry ice (carbon dioxide −78° C.). The striatum and cortex are then dissected and also put on dry ice. The time from decapitation until the last tissue is dissected varies from four to six minutes. The tissue is weighed using a Sartorius BP3105 connected to a computer and packed in labelled tin foil, then stored in an −80° C. freezer. Great care is taken in order to keep the tissue frozen until the time of neurochemical analysis. Each brain part is subsequently analyzed with respect to its content of monoamines and their metabolites.
The monoamine transmitter substances (NE (norepinephrine), DA (dopamine), 5-HT (serotonin)) as well as their amine (NM (normethanephrine), 3-MT (3-methoxy-tyramine)) and acid (DOPAC (3,4-dihydroxyphenylacetic acid), 5-HIAA (5-hydroxyindoleacetic acid), HVA (homovanillic acid)) metabolites are quantified in brain tissue homogenates by HPLC separations and electrochemical detection.
The analytical method is based on two chromatographic separations dedicated for amines or acids. Two chromatographic systems share a common auto injector with a 10-port valve and two sample loops for simultaneous injection on the two systems. Both systems are equipped with a reverse phase column (Luna C18(2), dp 3 μm, 50*2 mm i.d., Phenomenex) and electrochemical detection is accomplished at two potentials on glassy carbon electrodes (MF-1000, Bioanalytical Systems, Inc.). The column effluent is passed via a T-connection to the detection cell or to a waste outlet. This is accomplished by two solenoid valves, which block either the waste or detector outlet. By preventing the chromatographic front from reaching the detector, better detection conditions are achieved. The aqueous mobile phase (0.4 mL/min) for the acid system contains citric acid 14 mM, sodium citrate 10 mM, MeOH 15% (v/v) and EDTA 0.1 mM. Detection potentials relative to Ag/AgCl reference are 0.45 and 0.60V. The aqueous ion pairing mobile phase (0.5 mL/min) for the amine system contains citric acid 5 mM, sodium citrate 10 mM, MeOH 9% (v/v), MeCN 10.5% (v/v), decane sulfonic acid 0.45 mM, and EDTA 0.1 mM. Detection potentials relative to Ag/AgCl reference are 0.45 and 0.65V.

[2] = test system: DOPAC levels (3,4-dihydroxyphenylacetic acid) in the rat striatum; details: 100 μmol/kg s.c., %-increase from control value, data taken from Table 2 in Ref 1 (J. Med. Chem. 1994, 37, 2735); cited from earlier work
[3] = test system: extracellular levels of dopamine, norepinephrine and serotonin in p.f. cortex and striatum; test: In vivo microdialysis in awake and freely moving rats; design: species or system rat; details: 10 mg/kg s.c., FIG. 21
[4] = Rattus norvegicus, read-out: DOPAC %-increase, rat striatum, 100 μmol/kg s.c., %-increase from control value, 60 minutes after administration
[5] = rat striatum, 100 μmol/kg s.c., %-increase from control value, 60 minutes after administration

CCN1CCC(O)(c2ccc(F)c(F)c2)C1 (stereo not drawn) [Example 12, 3-(3,4-DIFLUOROPHENYL)-1-ETHYLPYRROLIDIN-3-OL]
change in vivo at 100 µmol/kg [1, 4]: -19%

CCN1CCC(O)(c2cc(F)cc(F)c2)C1 (single isomer, unassigned; (+)) [Example 2, (+)-3-(3,5-DIFLUOROPHENYL)-1-ETHYLPYRROLIDIN-3-OL]
DOPAC %-increase [1, 5]: −16%

CCCN1CCC(O)(c2ccc(F)c(F)c2)C1 (stereo not drawn) [Example 7, 3-(3,4-DIFLUOROPHENYL)-1-PROPYLPYRROLIDIN-3-OL]
change in vivo at 100 µmol/kg [1, 4]: 0%

CCCN1CCC(O)(c2cc(F)cc(F)c2)C1 (stereo not drawn) [Example 9, 3-(3,5-DIFLUOROPHENYL)-1-PROPYLPYRROLIDIN-3-OL]
change in vivo at 100 µmol/kg [1, 4]: -5%

CCN1CCC(O)(c2cccc(F)c2F)C1 (single isomer, unassigned; (-)) [Example 32, (−)-3-(2,3-DIFLUOROPHENYL)-1-ETHYLPYRROLIDIN-3-OL]
DOPAC %-increase [1, 5]: +8%

CCN1CCC(O)(c2cc(F)cc(F)c2)C1 (single isomer, unassigned; (-)) [Example 1, (−)-3-(3,5-DIFLUOROPHENYL)-1-ETHYLPYRROLIDIN-3-OL]
DOPAC %-increase [1, 5]: 0%

CCN1CCC(O)(c2cccc(F)c2F)C1 (stereo not drawn) [Example 4, 3-(2,3-DIFLUOROPHENYL)-1-ETHYLPYRROLIDIN-3-OL]
DOPAC %-increase [1, 5]: −10%

CCCN1CCC[C@@H](c2cccc(S(C)(=O)=O)c2)C1 [Example 16 of ref. 1]
DOPAC %-increase [2]: +150^2%

CCN1CCC(O)(c2ccc(F)c(Cl)c2)C1 (stereo not drawn) [Example 3, 3-(3-CHLORO-4-FLUOROPHENYL)-1-ETHYLPYRROLIDIN-3-OL]
change in vivo at 100 µmol/kg [1, 4]: -28%

CN1CCC(F)(c2cc(F)cc(F)c2)C1 (stereo not drawn) [Example 11, 3-(3,5-DIFLUOROPHENYL)-3-FLUORO-1-METHYLPYRROLIDINE]
change in vivo at 100 µmol/kg ([1]; rat striatum, 100 μmol/kg s.c., %-increase from control value, 60 minutes after administration, read-out: DOPAC %-increase): -4%

CCN1CCC(O)(c2cccc(F)c2F)C1 (single isomer, unassigned; (+)) [Example 36, (+)-3-(2,3-DIFLUOROPHENYL)-1-ETHYLPYRROLIDIN-3-OL]
DOPAC %-increase [1, 5]: −15%

CCN1CCC(O)(c2ccc(Cl)c(Cl)c2)C1 (stereo not drawn) [Example 10, 3-(3,4-DICHLOROPHENYL)-1-ETHYLPYRROLIDIN-3-OL]
change in vivo at 100 µmol/kg [1, 4]: -26%

CCN1CCC(O)(c2cc(Cl)cc(Cl)c2)C1 (stereo not drawn) [Example 6, 3-(3,5-DICHLOROPHENYL)-1-ETHYLPYRROLIDIN-3-OL]
change in vivo at 100 µmol/kg [1, 4]: -10%

CCN1CCC(O)(c2cc(F)cc(F)c2)C1 (stereo not drawn) [Example 8, 3-(3,5-DIFLUOROPHENYL)-1-ETHYLPYRROLIDIN-3-OL]
DOPAC %-increase [1, 5]: −24%

CN1CCN2c3ncccc3Cc3ccccc3C2C1 (stereo not drawn) [mirtazapine]
cortical NE levels [3]: marked increases in cortical NE levels | extracellular norepinephrine and dopamine in the cortex [3]: increase predominantly extracellullar norepinephrine and dopamine in the cortex

CCN1CCC(O)(c2cc(F)cc(Cl)c2)C1 (stereo not drawn) [Example 5, 3-(3-CHLORO-5-FLUOROPHENYL)-1-ETHYLPYRROLIDIN-3-OL]
change in vivo at 100 µmol/kg [1, 4]: -26%

CN1CCC(O)(c2cc(F)cc(Cl)c2)C1 (stereo not drawn) (as salt: fumaric acid salt)
melting point: 129 to 131 °C
